Assay results reported in publication PMC7253423, “Quassinoid analogs with enhanced efficacy for treatment of hematologic malignancies target the PI3Kγ isoform” (Communications Biology, 2020).
Values joined by “and” are separate entries in the source; they are usually repeats but may differ in a detail not shown here. Equal values may be shown once.

Key:
[1] = tested on: Raji cells; experiment: Cell viability assay (CellTiter-Glo luminescence); assay type: cell-based, human; settings: Homo sapiens, analogs, 72 h, Fig. 5c, read-out: IC50
Description: (§1) 5000 cells as indicated were cultured in 96-well plate with 100 μl of media. […] After treatment, the cells were incubated with 100 μl buffer for 10 min at room temperature following the instructions of CellTiter-Glo kit (Promega, Madison, WI). Luminescence was detected using a multi-mode reader Cytation 5 (BioTek, Winooski, VT). […] Two independent experiments done in duplicates were performed.

[2] = Body weight of xenograft mice; assay type: in vivo, NOD/SCID mice; settings: individual mice, Fig S3i, in g (unit assumed)
Description: (§2) Six-week-old male NOD.CB17-Prkdc^scid/J (NOD/SCID) mice (Jackson Labs, Bar Harbor, ME, USA) were used as the human-in-mouse xeno-transplantation model. MOLM14 cells (1 × 10^7 cells) were injected into the subcutaneous space on the left flank of the mice. […] Body weight and tumor size were monitored before every injection. After treatment for 2 weeks, the mice were euthanized by CO2 inhalation and the tumors were carefully excised. The tumor volume (mm^3) was measured and calculated using the formula (a × b × b)/2 (a, the largest diameter of two measurements; b, the smallest diameter of two measurements).

[3] = tested on: MOLM14 xenografts; experiment: In vivo tumorigenic assay using xenografts, tumor size; set-up: species or system NOD/SCID mice; settings: MOLM14 xenograft
Description: as §2

[4] = tested on: PBMC; experiment: Cytotoxicity, cell viability assay in normal cells; assay type: cell-based, human; settings: Fig 5c
Text: Human peripheral blood mononuclear cells (PBMCs), normal T-cells and B-cells were provided by the University of Pennsylvania Human Immunology Core (HIC), and Patient-derived xenografts (PDXs) were obtained from Fox Chase Cancer Center (FCCC). These samples were from different unidentified and healthy donors with written, informed consent. All the procedures were approved by the Institutional Review Board (IRB) and conducted according to the declarations of Helsinki protocols.
as §1

[5] = tested on: hematologic malignancies derived cell lines; experiment: Cell viability assay, panel of hematologic malignancy derived cell lines; assay type: cell-based, human; settings: 100 nM, 72 h, lymphoma, leukemia and multiple myeloma cell lines (13 cell lines for analogs)
Description: 5000 cells as indicated were cultured in 96-well plate with 100 μl of media. On the next day, Brusatol or associated analogs were added once to the cells without media change. After treatment, the cells were incubated with 100 μl buffer for 10 min at room temperature following the instructions of CellTiter-Glo kit (Promega, Madison, WI). Luminescence was detected using a multi-mode reader Cytation 5 (BioTek, Winooski, VT). […] Two independent experiments done in duplicates were performed.

Row | SMILES | IC50 [1] [nM] | Body weight ([2]; 0d) | Body weight ([2]; 2d) | Body weight ([2]; 4d) | Body weight ([2]; 6d) | Body weight ([2]; 8d) | Body weight ([2]; 10d) | Body weight ([2]; 12d) | tumor size (Fig 5d&5e), individual mice ([3]; 0d) | tumor size (Fig 5d&5e), individual mice ([3]; 2d) | tumor size (Fig 5d&5e), individual mice ([3]; 4d) | tumor size (Fig 5d&5e), individual mice ([3]; 6d) | tumor size (Fig 5d&5e), individual mice ([3]; 8d) | tumor size (Fig 5d&5e), individual mice ([3]; 10d) | tumor size (Fig 5d&5e), individual mice ([3]; 12d) | Cell viability, raw luminescence reading ([4]; Con. 0.01 μM) | Cell viability, raw luminescence reading ([4]; Con. 0.039 μM) | Cell viability, raw luminescence reading ([4]; Con. 0.156 μM) | Cell viability, raw luminescence reading ([4]; Con. 0.625 μM) | Cell viability, raw luminescence reading ([4]; Con. 10 μM) | also measured
1 | COC(=O)C12OCC34C(CC5C(C)=C(OC(=O)C(N)Cc6ccccc6)C(=O)CC5(C)C3C(O)C1O)OC(=O)C(OC(=O)C=C(C)C)C24 (stereo not drawn) [#14] | 39.2 | 25.66 and 26.32 and 25.88 and 25.26 and 25.69 | 26.84 and 26.83 and 25.73 | 30.22 and 27.96 | 31.1 and 27.6 | 31.54 and 29.03 and 29.06 and 28.16 and 27.82 and 27.45 | 32.14 and 29.64 and 29.88 and 28.65 and 28.04 | 33.33 and 31.09 and 31.73 and 30.06 and 30.08 | 146.154 and 92.4556 and 61.5288 and 118.617 and 111.079 and 97.6091 | 155.286 and 83.3599 and 78.5598 and 123.615 and 132.099 and 148.619 | 205.624 and 120.823 and 83.03 and 205.911 and 121.618 and 141.386 | 215.948 and 214.154 and 405.903 and 288.793 and 65.298 and 81.0923 | 654.828 and 372.84 and 268.332 and 549.466 and 314.977 and 266.348 | 1094.41 and 794.074 and 511.007 and 817.839 and 517.393 and 583.109 | 1848.1 and 1147.5 and 978.929 and 1531.82 and 970.42 and 1008.11 | 16702 and 18584 | 14138 and 13170 | 9796 and 9988 | 7942 and 8235 | 10547 and 15443 | inhibition of cell viability in panel of cell lines [5]: significantly inhibit
2 | COC(=O)C12OCC34C(CC5C(C)=C(OC(=O)C6CCCN6)C(=O)CC5(C)C3C(O)C1O)OC(=O)C(OC(=O)C=C(C)C)C24 (stereo not drawn) [#31] | 36.5 | 25.68 and 24.55 and 25.16 and 23.48 | 27.27 and 26.58 and 25.38 and 25.93 and 25.43 and 23.7 | 26.97 and 26.67 and 25.81 and 25.44 and 25.69 | 27.97 and 26.96 and 26.09 | 28.38 and 27.82 and 26.73 and 25.66 | 28.24 and 27.47 and 25.9 and 26.82 and 26.06 | 29.56 and 29.11 and 26.31 and 27.31 | 74.2529 and 62.0281 and 101.973 and 60.5009 and 91.8956 and 82.6996 | 107.191 and 120.034 and 71.2216 and 100.836 and 98.4479 and 88.2667 | 99.5578 and 195.79 and 71.7513 and 67.0262 and 52.5262 and 97.4505 | 95.2698 and 78.8527 and 143.077 and 70.9567 and 158.17 and 228.179 | 324.747 and 668.944 and 318.873 and 96.919 and 128.11 and 346.937 | 458.137 and 927.585 and 502.969 and 200.67 and 236.721 and 666.334 | 959.947 and 1557.75 and 485.372 and 249.92 and 359.5 and 1074.17 | 21395 and 22004 | 12976 and 10747 | 7357 and 6947 | 8946 and 8046 | 8102 and 7279 | inhibition of cell viability in panel of cell lines [5]: significantly inhibit
